Measured values: patent US11813306B2, “Cyclic tetramer compounds as proprotein convertase subtilisin/kexin type 9 (PCSK9) inhibitors for the treatment of metabolic disorders” (NOVARTIS AG, priority 2018, dated 2023)

Biological target: human PCSK9 (Homo sapiens, UniProt Q8NBP7)
Test: PCSK9 ligand binding assay (TR-FRET): interference with binding of human PCSK9 to human LDLR
Settings: for IC50: Human PCSK9 Alexa Fluor 647 / Human LDLR extracellular domain-Europium Kryptate; for Max % inhibition: efficacy (Amax), 100% = 1 uM unlabeled human PCSK9, 0% = DMSO
Procedure, shortened: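 Read-out was TR-FRET ratio (665 nm over 615 nm, 330 nm excitation) between Alexa Fluor 647-human PCSK9 (16 nM added) and Europium Kryptate-human LDLR ectodomain (4 nM added). Compound and PCSK9 were mixed 30 min before LDLR, then incubated 2 h. Inhibition was normalised to DMSO and unlabelled-PCSK9 controls, giving IC50 and Amax.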

Sequence of human PCSK9 (Q8NBP7 153-692): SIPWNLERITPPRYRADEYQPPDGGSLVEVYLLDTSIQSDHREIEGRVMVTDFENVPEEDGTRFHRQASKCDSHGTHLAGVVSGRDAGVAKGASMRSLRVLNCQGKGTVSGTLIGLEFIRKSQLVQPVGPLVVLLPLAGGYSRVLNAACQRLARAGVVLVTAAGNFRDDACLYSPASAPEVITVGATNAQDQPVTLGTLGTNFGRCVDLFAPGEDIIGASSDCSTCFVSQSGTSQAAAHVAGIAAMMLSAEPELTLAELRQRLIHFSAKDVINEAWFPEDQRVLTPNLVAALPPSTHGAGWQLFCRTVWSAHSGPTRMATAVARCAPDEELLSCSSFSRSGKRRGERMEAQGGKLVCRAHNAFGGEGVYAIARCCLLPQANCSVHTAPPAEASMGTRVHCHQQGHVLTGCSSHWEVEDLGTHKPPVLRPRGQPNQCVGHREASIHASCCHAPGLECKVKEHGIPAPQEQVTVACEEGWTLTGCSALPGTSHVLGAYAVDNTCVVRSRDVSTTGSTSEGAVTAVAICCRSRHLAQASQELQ
Sequence of human PCSK9 (Q8NBP7 31-152 partner limits assumed): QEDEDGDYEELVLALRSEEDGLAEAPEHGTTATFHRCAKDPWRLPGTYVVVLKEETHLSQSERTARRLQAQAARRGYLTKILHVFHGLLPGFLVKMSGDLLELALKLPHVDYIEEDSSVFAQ

## C[C@H]1C(=O)N[C@@H](CO)C(=O)N[C@@]2(Cc3ccc(Cl)cc3)CCCN(C2)C(=O)[C@H](CC(F)(F)F)CC(=O)N1Cc1ccc(Cl)cc1Oc1ccc(-c2cnc(CN(C)C(C)(C)C)n2C)cc1 [Compound 143, (3S, 7S, 10S, 13R)-6-(2-(4-(2-((tert-butyl(methyl)amino)methyl)-1-methyl-1H-imidazol-5-yl)phenoxy)-4-chlorobenzyl)-13-(4-chlorobenzyl)-10-(hydroxymethyl)-7-methyl-3-(2,2,2-trifluoroethyl)-1,6,9,12-tetraazabicyclo[11.3.1]heptadecane-2,5,8,11-tetraone]
  IC50: 1.28 nM
  Max % inhibition: 113.6%

## C[C@H]1C(=O)N[C@@H](CO)C(=O)N[C@@]2(Cc3ccc(Cl)cc3)CCCN(C2)C(=O)[C@H](CC2(C)CC2)CC(=O)N1Cc1c(F)cc(Cl)cc1Oc1ccc(-c2cnc(CN(C)C)n2C)cc1 [Compound 144, (3R, 7S, 10S, 13R)-6-(4-chloro-2-(4-(2-((dimethylamino)methyl)-1-methyl-1H-imidazol-5-yl)phenoxy)-6-fluorobenzyl)-13-(4-chlorobenzyl)-10-(hydroxymethyl)-7-methyl-3-((1-methylcyclopropyl)methyl)-1,6,9,12-tetraazabicyclo[11.3.1]heptadecane-2,5,8,11-tetraone]
  IC50: 3.96 nM
  Max % inhibition: 113.1%

## C[C@H]1C(=O)N[C@@H](CO)C(=O)N[C@@]2(Cc3ccc(Cl)cc3)CCCN(C2)C(=O)[C@H](CC2CC2)CC(=O)N1Cc1c(F)cc(Cl)cc1Oc1ccc(-c2cnc(CN(C)C)n2C)cc1 [Compound 145, (3R, 7S, 10S, 13R)-6-(4-chloro-2-(4-(2-((dimethylamino)methyl)-1-methyl-1H-imidazol-5-yl)phenoxy)-6-fluorobenzyl)-13-(4-chlorobenzyl)-3-(cyclopropylmethyl)-10-(hydroxymethyl)-7-methyl-1,6,9,12-tetraazabicyclo[11.3.1]heptadecane-2,5,8,11-tetraone]
  IC50: 0.95 nM
  Max % inhibition: 112.3%

## C[C@H]1C(=O)N[C@@H](CO)C(=O)N[C@@]2(Cc3ccc(Cl)cc3)CCCN(C2)C(=O)[C@H](CC(C)(F)F)CC(=O)N1Cc1c(F)cc(Cl)cc1Oc1ccc(-c2cnc(CN(C)C)n2C)cc1 [Compound 146, (3S, 7S, 10S, 13R)-6-(4-chloro-2-(4-(2-((dimethylamino)methyl)-1-methyl-1H-imidazol-5-yl)phenoxy)-6-fluorobenzyl)-13-(4-chlorobenzyl)-3-(2,2-difluoropropyl)-10-(hydroxymethyl)-7-methyl-1,6,9,12-tetraazabicyclo[11.3.1]heptadecane-2,5,8,11-tetraone]
  IC50: 0.57 nM
  Max % inhibition: 111.4%

## C[C@H]1C(=O)N[C@@H](CO)C(=O)N[C@@]2(Cc3ccc(Cl)cc3)CCCN(C2)C(=O)[C@H](CC(F)(F)F)CC(=O)N1Cc1ccc(Cl)cc1Oc1ccc(-c2cnc(CNC(C)(C)C)n2C)cc1 [Compound 147, (3S, 7S, 10S, 13R)-6-(2-(4-(2-((tert-butylamino)methyl)-1-methyl-1H-imidazol-5-yl)phenoxy)-4-chlorobenzyl)-13-(4-chlorobenzyl)-10-(hydroxymethyl)-7-methyl-3-(2,2,2-trifluoroethyl)-1,6,9,12-tetraazabicyclo[11.3.1]heptadecane-2,5,8,11-tetraone]
  IC50: 0.72 nM
  Max % inhibition: 110.6%

## C[C@H]1C(=O)N[C@@H](CO)C(=O)N[C@@]2(Cc3ccc(Cl)cc3)CCCN(C2)C(=O)[C@H](CC2CC2)CC(=O)N1Cc1ccc(Cl)cc1Oc1ccc(-c2cnc(CNC(C)(C)C)n2C)cc1 [Compound 148, (3R, 7S, 10S, 13R)-6-(2-(4-(2-((tert-butylamino)methyl)-1-methyl-1H-imidazol-5-yl)phenoxy)-4-chlorobenzyl)-13-(4-chlorobenzyl)-3-(cyclopropylmethyl)-10-(hydroxymethyl)-7-methyl-1,6,9,12-tetraazabicyclo[11.3.1]heptadecane-2,5,8,11-tetraone]
  IC50: 1.09 nM
  Max % inhibition: 111.9%

## COC[C@@H]1NC(=O)[C@H](C)N(Cc2ccc(Cl)cc2Oc2ccc(-c3cnc(CNC(C)(C)C)n3C)cc2)C(=O)C[C@@H](Cc2ccccc2)C(=O)N2CCC[C@@](Cc3ccc(Cl)cc3)(C2)NC1=O [Compound 149, (3R, 7S, 10S, 13R)-3-benzyl-6-(2-(4-(2-((tert-butylamino)methyl)-1-methyl-1H-imidazol-5-yl)phenoxy)-4-chlorobenzyl)-13-(4-chlorobenzyl)-10-(methoxymethyl)-7-methyl-1,6,9,12-tetraazabicyclo[11.3.1]heptadecane-2,5,8,11-tetraone]
  IC50: 0.75 nM
  Max % inhibition: 111.4%

## CNCc1ncc(-c2ccc(Oc3cc(Cl)ccc3CN3C(=O)C[C@@H](Cc4ccccc4)C(=O)N4CCC[C@@](Cc5ccc(Cl)cc5)(C4)NC(=O)[C@H](CO)NC(=O)[C@@H]3C)cc2)n1C [Compound 150, (3R, 7S, 10S, 13R)-3-benzyl-6-(4-chloro-2-(4-(1-methyl-2-((methylamino)methyl)-1H-imidazol-5-yl)phenoxy)benzyl)-13-(4-chlorobenzyl)-10-(hydroxymethyl)-7-methyl-1,6,9, 12-tetraazabicyclo[11.3.1]heptadecane-2,5,8,11-tetraone]
  IC50: 0.85 nM
  Max % inhibition: 105.4%

## C[C@H]1C(=O)N[C@@H](CO)C(=O)N(C)[C@@]2(Cc3ccc(Cl)cc3)CCCN(C2)C(=O)[C@@H](CC(F)(F)F)CC(=O)N1Cc1c(F)cc(Cl)cc1Oc1ccc(-c2cnc(CN(C)C)n2C)cc1 [Compound 151, (3R, 7S, 10S, 13R)-6-(4-chloro-2-(4-(2-((dimethylamino)methyl)-1-methyl-1H-imidazol-5-yl)phenoxy)-6-fluorobenzyl)-13-(4-chlorobenzyl)-10-(hydroxymethyl)-7,12-dimethyl-3-(2,2,2-trifluoroethyl)-1,6,9,12-tetraazabicyclo[11.3.1]heptadecane-2,5,8,11-tetraone]
  IC50: 5.69 nM
  Max % inhibition: 107.5%

## CCN(Cc1ncc(-c2ccc(Oc3cc(Cl)cc(F)c3CN3C(=O)C[C@@H](CC(F)(F)F)C(=O)N4CCC[C@@](Cc5ccc(Cl)cc5)(C4)NC(=O)[C@H](CO)NC(=O)[C@@H]3C)cc2)n1C)C1(C)CC1 [Compound 152, (3S, 7S, 10S, 13R)-6-(4-chloro-2-(4-(2-((ethyl(1-methylcyclopropyl)amino)methyl)-1-methyl-1H-imidazol-5-yl)phenoxy)-6-fluorobenzyl)-13-(4-chlorobenzyl)-10-(hydroxymethyl)-7-methyl-3-(2,2,2-trifluoroethyl)-1,6,9,12-tetraazabicyclo[11.3.1]heptadecane-2,5,8,11-tetraone]
  IC50: 3.29 nM
  Max % inhibition: 103.4%

## C[C@H]1C(=O)N[C@@H](CO)C(=O)N[C@@]2(Cc3ccc(Cl)cc3)CCCN(C2)C(=O)[C@H](CC2CC2)CC(=O)N1Cc1c(F)cc(Cl)cc1Oc1ccc(-c2cnc(CNC3CCC3)n2C)cc1 [Compound 153, (3R, 7S, 10S, 13R)-6-(4-chloro-2-(4-(2-((cyclobutylamino)methyl)-1-methyl-1H-imidazol-5-yl)phenoxy)-6-fluorobenzyl)-13-(4-chlorobenzyl)-3-(cyclopropylmethyl)-10-(hydroxymethyl)-7-methyl-1,6,9,12-tetraazabicyclo[11.3.1]heptadecane-2,5,8,11-tetraone]
  IC50: 0.93 nM
  Max % inhibition: 100.4%
